Values quoted from earlier work, collected in patent publication US6340480B1, “Natural composition for the treatment of circulatory conditions” (priority 1998, dated 2002).

Test system: Activated Macrophages
Settings: for killing certain tumor cells; literature study

CC(C)=CCC[C@](C)(O[C@@H]1O[C@H](CO)[C@@H](O)[C@H](O)[C@H]1O)[C@H]1CC[C@]2(C)[C@@H]1[C@H](O)C[C@@H]1[C@@]3(C)CC[C@H](O)C(C)(C)[C@@H]3[C@@H](O[C@@H]3O[C@H](CO)[C@@H](O)[C@H](O)[C@H]3O)C[C@]12C [RG1]
production of NO: enhances the production of NO
